Laboratory results as given in the supplement of paper PMC10132981, “Formate overflow drives toxic folate trapping in MTHFD1 inhibited cancer cells” (Nature Metabolism, 2023).
± gives the standard deviation of the averaged measurements.

Tested on: SW620 MTHFD2-/-
Test: cell viability relative to vehicle (resazurin, 96 h); higher = more viable
Conditions: base medium: RPMI + dialysed FBS
Description: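 SW620 WT or MTHFD2-/- cells were treated for 96 h with a compound dilution series (log10 M) in RPMI with normal or dialysed FBS. Viability was read by resazurin and is given as % of vehicle.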

For `Cc1c(N2CCN(C)[C@@H](C)C2)ccc2c3c(c(=O)oc12)CN(C(=O)c1ccc(NS(C)(=O)=O)c(OC(F)(F)F)c1)CC3`, the cell viability (log10 compound concentration (M): -5, supplement / serum: 50μM Hypoxanthine) was 95.4 ± 16%, the cell viability (log10 compound concentration (M): -5, supplement / serum: 50μM Thymidine + 50μM Hypoxanthine) was 108 ± 27% and the cell viability (log10 compound concentration (M): -5, supplement / serum: 50μMThymidine) was 13.3 ± 4.3%. The cell viability (log10 compound concentration (M): -5, supplement / serum: Hypoxanthine+Sodium Formate) was 51.9 ± 11%, the cell viability (log10 compound concentration (M): -5, supplement / serum: Hypoxanthine) was 85.7 ± 11% and the cell viability (log10 compound concentration (M): -5, supplement / serum: No metabolite) was 15.4 ± 8.4%. The cell viability (log10 compound concentration (M): -5, supplement / serum: Sodium Formate) was 87.3 ± 23%, the cell viability (log10 compound concentration (M): -5, supplement / serum: Vehicle) was 11.5 ± 3.2% and the cell viability (log10 compound concentration (M): -5.47712, supplement / serum: 50μM Hypoxanthine) was 77.9 ± 12%. For the same molecule, the cell viability (log10 compound concentration (M): -5.47712, supplement / serum: 50μM Thymidine + 50μM Hypoxanthine) was 98 ± 15%, the cell viability (log10 compound concentration (M): -5.47712, supplement / serum: 50μMThymidine) was 14.1 ± 2.8% and the cell viability (log10 compound concentration (M): -5.47712, supplement / serum: Hypoxanthine+Sodium Formate) was 90.1 ± 16%. It also gave a cell viability (log10 compound concentration (M): -5.47712, supplement / serum: Hypoxanthine) of 94.2 ± 12%, a cell viability (log10 compound concentration (M): -5.47712, supplement / serum: No metabolite) of 14.8 ± 3.6% and a cell viability (log10 compound concentration (M): -5.47712, supplement / serum: Sodium Formate) of 95.7 ± 17%. It also gave a cell viability (log10 compound concentration (M): -5.47712, supplement / serum: Vehicle) of 13.5 ± 1.9%, a cell viability (log10 compound concentration (M): -5.95424, supplement / serum: 50μM Hypoxanthine) of 99.7 ± 30% and a cell viability (log10 compound concentration (M): -5.95424, supplement / serum: 50μM Thymidine + 50μM Hypoxanthine) of 111 ± 24%. The cell viability (log10 compound concentration (M): -5.95424, supplement / serum: 50μMThymidine) was 20.9 ± 2.7%, the cell viability (log10 compound concentration (M): -5.95424, supplement / serum: Hypoxanthine+Sodium Formate) was 99 ± 7.3% and the cell viability (log10 compound concentration (M): -5.95424, supplement / serum: Hypoxanthine) was 101 ± 8.7%. The cell viability (log10 compound concentration (M): -5.95424, supplement / serum: No metabolite) was 20.5 ± 6%, the cell viability (log10 compound concentration (M): -5.95424, supplement / serum: Sodium Formate) was 97.1 ± 5.7% and the cell viability (log10 compound concentration (M): -5.95424, supplement / serum: Vehicle) was 20.3 ± 1.7%. It also gave a cell viability (log10 compound concentration (M): -6.43136, supplement / serum: 50μM Hypoxanthine) of 109 ± 6%, a cell viability (log10 compound concentration (M): -6.43136, supplement / serum: 50μM Thymidine + 50μM Hypoxanthine) of 114 ± 1.9% and a cell viability (log10 compound concentration (M): -6.43136, supplement / serum: 50μMThymidine) of 41.5 ± 7.3%. For the same molecule, the cell viability (log10 compound concentration (M): -6.43136, supplement / serum: Hypoxanthine+Sodium Formate) was 104 ± 4.9%, the cell viability (log10 compound concentration (M): -6.43136, supplement / serum: Hypoxanthine) was 98 ± 9% and the cell viability (log10 compound concentration (M): -6.43136, supplement / serum: No metabolite) was 43.5 ± 14%. For the same molecule, the cell viability (log10 compound concentration (M): -6.43136, supplement / serum: Sodium Formate) was 98.9 ± 6.7%, the cell viability (log10 compound concentration (M): -6.43136, supplement / serum: Vehicle) was 44.8 ± 4.5% and the cell viability (log10 compound concentration (M): -6.90849, supplement / serum: 50μM Hypoxanthine) was 99.4 ± 32%. For the same molecule, the cell viability (log10 compound concentration (M): -6.90849, supplement / serum: 50μM Thymidine + 50μM Hypoxanthine) was 101 ± 31%, the cell viability (log10 compound concentration (M): -6.90849, supplement / serum: 50μMThymidine) was 59.6 ± 11% and the cell viability (log10 compound concentration (M): -6.90849, supplement / serum: Hypoxanthine+Sodium Formate) was 98.9 ± 4.2%. For the same molecule, the cell viability (log10 compound concentration (M): -6.90849, supplement / serum: Hypoxanthine) was 99.5 ± 3.1%, the cell viability (log10 compound concentration (M): -6.90849, supplement / serum: No metabolite) was 56.7 ± 2.8% and the cell viability (log10 compound concentration (M): -6.90849, supplement / serum: Sodium Formate) was 100 ± 5.1%. It also gave a cell viability (log10 compound concentration (M): -6.90849, supplement / serum: Vehicle) of 74.4 ± 7.1%, a cell viability (log10 compound concentration (M): -7.38561, supplement / serum: 50μM Hypoxanthine) of 67.2 ± 11% and a cell viability (log10 compound concentration (M): -7.38561, supplement / serum: 50μM Thymidine + 50μM Hypoxanthine) of 110 ± 7.3%. The cell viability (log10 compound concentration (M): -7.38561, supplement / serum: 50μMThymidine) was 61.2 ± 15%, the cell viability (log10 compound concentration (M): -7.38561, supplement / serum: Hypoxanthine+Sodium Formate) was 83 ± 8.4% and the cell viability (log10 compound concentration (M): -7.38561, supplement / serum: Hypoxanthine) was 85.2 ± 7.3%. The cell viability (log10 compound concentration (M): -7.38561, supplement / serum: No metabolite) was 50 ± 3.7%, the cell viability (log10 compound concentration (M): -7.38561, supplement / serum: Sodium Formate) was 76.9 ± 5.5% and the cell viability (log10 compound concentration (M): -7.38561, supplement / serum: Vehicle) was 56.4 ± 5%. The cell viability (log10 compound concentration (M): -7.86273, supplement / serum: 50μM Hypoxanthine) was 104 ± 5.7%, the cell viability (log10 compound concentration (M): -7.86273, supplement / serum: 50μM Thymidine + 50μM Hypoxanthine) was 105 ± 5.2% and the cell viability (log10 compound concentration (M): -7.86273, supplement / serum: 50μMThymidine) was 67.2 ± 0.81%. For the same molecule, the cell viability (log10 compound concentration (M): -7.86273, supplement / serum: Hypoxanthine+Sodium Formate) was 94.5 ± 7.3%, the cell viability (log10 compound concentration (M): -7.86273, supplement / serum: Hypoxanthine) was 88.9 ± 8.2% and the cell viability (log10 compound concentration (M): -7.86273, supplement / serum: No metabolite) was 72.2 ± 5.5%. The cell viability (log10 compound concentration (M): -7.86273, supplement / serum: Sodium Formate) was 94.4 ± 6.8%, the cell viability (log10 compound concentration (M): -7.86273, supplement / serum: Vehicle) was 80.2 ± 7.6% and the cell viability (log10 compound concentration (M): -8.33985, supplement / serum: 50μM Hypoxanthine) was 104 ± 3.1%. The cell viability (log10 compound concentration (M): -8.33985, supplement / serum: 50μM Thymidine + 50μM Hypoxanthine) was 95 ± 9%, the cell viability (log10 compound concentration (M): -8.33985, supplement / serum: 50μMThymidine) was 77.3 ± 1.7% and the cell viability (log10 compound concentration (M): -8.33985, supplement / serum: Hypoxanthine+Sodium Formate) was 101 ± 9.1%. It also gave a cell viability (log10 compound concentration (M): -8.33985, supplement / serum: Hypoxanthine) of 93.9 ± 12%, a cell viability (log10 compound concentration (M): -8.33985, supplement / serum: No metabolite) of 90 ± 3.7% and a cell viability (log10 compound concentration (M): -8.33985, supplement / serum: Sodium Formate) of 92.2 ± 12%. The cell viability (log10 compound concentration (M): -8.33985, supplement / serum: Vehicle) was 92.8 ± 7.2%, the cell viability (log10 compound concentration (M): -8.81697, supplement / serum: 50μM Hypoxanthine) was 114 ± 8.4% and the cell viability (log10 compound concentration (M): -8.81697, supplement / serum: 50μM Thymidine + 50μM Hypoxanthine) was 113 ± 10%. It also gave a cell viability (log10 compound concentration (M): -8.81697, supplement / serum: 50μMThymidine) of 94 ± 18%, a cell viability (log10 compound concentration (M): -8.81697, supplement / serum: Hypoxanthine+Sodium Formate) of 95.1 ± 4.2% and a cell viability (log10 compound concentration (M): -8.81697, supplement / serum: Hypoxanthine) of 94.5 ± 3.4%. For the same molecule, the cell viability (log10 compound concentration (M): -8.81697, supplement / serum: No metabolite) was 96.4 ± 18%, the cell viability (log10 compound concentration (M): -8.81697, supplement / serum: Sodium Formate) was 95.3 ± 5.8% and the cell viability (log10 compound concentration (M): -8.81697, supplement / serum: Vehicle) was 94.3 ± 2%. The cell viability (log10 compound concentration (M): -9.29409, supplement / serum: 50μM Hypoxanthine) was 96.5 ± 1.1%, the cell viability (log10 compound concentration (M): -9.29409, supplement / serum: 50μM Thymidine + 50μM Hypoxanthine) was 113 ± 10% and the cell viability (log10 compound concentration (M): -9.29409, supplement / serum: 50μMThymidine) was 95.6 ± 29%. It also gave a cell viability (log10 compound concentration (M): -9.29409, supplement / serum: Hypoxanthine+Sodium Formate) of 94.7 ± 2.4%, a cell viability (log10 compound concentration (M): -9.29409, supplement / serum: Hypoxanthine) of 95.9 ± 4% and a cell viability (log10 compound concentration (M): -9.29409, supplement / serum: No metabolite) of 104 ± 17%. The cell viability (log10 compound concentration (M): -9.29409, supplement / serum: Sodium Formate) was 98.8 ± 6.8%, the cell viability (log10 compound concentration (M): -9.29409, supplement / serum: Vehicle) was 97 ± 5.5% and the cell viability (log10 compound concentration (M): -9.77121, supplement / serum: 50μM Hypoxanthine) was 106 ± 7.2%. For the same molecule, the cell viability (log10 compound concentration (M): -9.77121, supplement / serum: 50μM Thymidine + 50μM Hypoxanthine) was 124 ± 1.8%, the cell viability (log10 compound concentration (M): -9.77121, supplement / serum: 50μMThymidine) was 92.7 ± 1.6% and the cell viability (log10 compound concentration (M): -9.77121, supplement / serum: Hypoxanthine+Sodium Formate) was 98.8 ± 3%. It also gave a cell viability (log10 compound concentration (M): -9.77121, supplement / serum: Hypoxanthine) of 95 ± 4.8%, a cell viability (log10 compound concentration (M): -9.77121, supplement / serum: No metabolite) of 110 ± 13% and a cell viability (log10 compound concentration (M): -9.77121, supplement / serum: Sodium Formate) of 99.3 ± 3.4%. It also gave a cell viability (log10 compound concentration (M): -9.77121, supplement / serum: Vehicle) of 96.2 ± 6%.
